Assay type in all cases: cell-based
Assay [1] addresses T1, HiBiT-tagged IKZF1 (Homo sapiens, UniProt Q13422+Q96SW2).
T1 construct: expressed in transfected cells; host or cells: HT-1080 (ATCC CCL-121), lentiviral transduction
In words: Degradation assay for IKZF1 (HiBiT tag bioluminescence assay). The following applies: HT-1080 IKZF1 HiBiT reporter cells; for DC50: read-out: HiBiT IKZF1: DC50. How it is done:
(§1) About 10,000 cells in complete DMEM cell culture media were seeded per well. Assay plates were incubated at 37° C. with 5% CO2 for hours, followed by the assessment of IKZF1 or SALL4 degradation using the Nano-Glo HiBiT Lytic Detection Reagent (Cat #N3050, Promega) according to the manufacturer's instruction. Luminescence was then measured with an EnVision plate reader (PerkinElmer) or a PHERAstar plate reader (BMG Labtech). All IKZF1 or SALL4 degradation curves were processed using Collaborative Drug Discovery Vault softwares. IKZF1 or SALL4 levels in compound-treated wells were normalized to that of DMSO control and expressed as Percent of Control (PoC, y). A four Parameter Logistic Model was used to determine the compound's EC50 and DC50, using the following equation:
(§2) A=Ymin (lowest IKZF1 or SALL4 level normalized to DMSO control in response to compound treatment, as determined by curve fit)
(§3) B=Ymax (IKZF1 or SALL4 level in DMSO control)
(§4) C=EC50 half degradation concentration
(§5) EC50=the concentration of compound when y=(Ymax−Ymin)/2
(§6) DC50=test sample concentration when IKZF1 or SALL4 readings y=50% DMSO-treated samples
(§7) y=IKZF1 or SALL4 readings after test sample treatment (normalized to IKZF1 or SALL4 readings in DMSO-treated samples)
(§8) Dmax represents the maximum percentage of IKZF1 or SALL4 protein degradation induced by compound treatment.
(The HiBiT peptide binds its large partner to form an active luciferase.)

Assay [2] concerns the target T2, HiBiT-tagged SALL4 (Homo sapiens, UniProt Q96SW2+Q9UJQ4).
T2 construct: expressed in transfected cells; host or cells: HT-1080 (ATCC CCL-121), lentiviral transduction
In words: Degradation assay for SALL4 (HiBiT tag bioluminescence assay). The following applies: HT-1080 SALL4 HiBiT reporter cells; for DC50: read-out: HiBiT SALL4: DC50. How it is done: as §1, §2, §3, §4, §5, §6, §7, §8

For assay [3], the target named is T1, HiBiT-tagged IKZF1. In words: IKZF1 protein degradation kinetics (IKZF1 HiBiT degradation assay, incubation 1, 2 or 4 hours). An excerpt:
The following is a general method for testing compounds-induced degradation of HiBiT-tagged IKZF1 or SALL4 overexpressed in a human cell line, for example, the HT-1080 cell line (American Type Culture Collection (ATCC), catalog number CCL-121). The HT-1080 IKZF1 (or SALL4) HiBiT reporter cell line was engineered via lentiviral transduction to stably overexpress GSPT1 (Δ1-138)/G575N and HiBiT-tagged IKZF1 or SALL4. The HT-1080 IKZF1 (or SALL4) HiBiT reporter cell line was maintained in DMEM media supplemented with 10% fetal bovine serum, IX sodium pyruvate, 1× non-essential amino acids, IX glutamine, 100 U/ml penicillin, and 100 μg/mL streptomycin. The HT-1080 IKZF1 (or SALL4) HiBiT reporter cells were seeded into 384-well plates (Cat #3764, Corning) pre-spotted with DMSO or test compounds. Increasing concentrations of test compounds (ranging from 15.81 pM to 500 nM or from 0.3162 nM to 10 μM at a 3.162-fold increment) or DMSO were dispensed into an empty 384-well plate using an Echo 650 Acoustic Liquid Handler (Beckman Coulter). About 10,000 cells in complete DMEM cell culture media were seeded per well. Assay plates were incubated at 37° C. with 5% CO2 for hours, followed by the assessment of IKZF1 or SALL4 degradation using the Nano-Glo HiBiT Lytic Detection Reagent (Cat #N3050, Promega) according to the manufacturer's instruction. Luminescence was then measured with an EnVision plate reader (PerkinElmer) or a PHERAstar plate reader (BMG Labtech). All IKZF1 or SALL4 degradation curves were processed using Collaborative Drug Discovery Vault softwares. IKZF1 or SALL4 levels in compound-treated wells were normalized to that of DMSO control and expressed as Percent of Control (PoC, y). A four Parameter Logistic Model was used to determine the compound's EC50 and DC50, using the following equation: […]
The IKZF1 protein degradation kinetics of compounds 9-B and 9-A was evaluated using the IKZF1 HiBiT degradation assay as described above except that the incubation time was changed to 1, 2 or 4 hours.

Where [4] appears, read: HT-1080, Table 1, maximum percentage of protein degradation.
[5] abbreviates: HT-1080, Table 2, all compounds tested on the same day.
[6] abbreviates: Table 1, performed once with technical duplicates, some compounds tested on different days.
The mark [7] stands for this setting: Table 2, all compounds tested on the same day.
Where [8] appears, read: after 1 hour of compound incubation.
The mark [9] stands for this setting: Table 1, maximum percentage of protein degradation.

Read-outs that look alike come from different tables or passages of the source. Where only a bound is given, the exact number is not on record here.

T2 sequence (Q9UJQ4 whole entry): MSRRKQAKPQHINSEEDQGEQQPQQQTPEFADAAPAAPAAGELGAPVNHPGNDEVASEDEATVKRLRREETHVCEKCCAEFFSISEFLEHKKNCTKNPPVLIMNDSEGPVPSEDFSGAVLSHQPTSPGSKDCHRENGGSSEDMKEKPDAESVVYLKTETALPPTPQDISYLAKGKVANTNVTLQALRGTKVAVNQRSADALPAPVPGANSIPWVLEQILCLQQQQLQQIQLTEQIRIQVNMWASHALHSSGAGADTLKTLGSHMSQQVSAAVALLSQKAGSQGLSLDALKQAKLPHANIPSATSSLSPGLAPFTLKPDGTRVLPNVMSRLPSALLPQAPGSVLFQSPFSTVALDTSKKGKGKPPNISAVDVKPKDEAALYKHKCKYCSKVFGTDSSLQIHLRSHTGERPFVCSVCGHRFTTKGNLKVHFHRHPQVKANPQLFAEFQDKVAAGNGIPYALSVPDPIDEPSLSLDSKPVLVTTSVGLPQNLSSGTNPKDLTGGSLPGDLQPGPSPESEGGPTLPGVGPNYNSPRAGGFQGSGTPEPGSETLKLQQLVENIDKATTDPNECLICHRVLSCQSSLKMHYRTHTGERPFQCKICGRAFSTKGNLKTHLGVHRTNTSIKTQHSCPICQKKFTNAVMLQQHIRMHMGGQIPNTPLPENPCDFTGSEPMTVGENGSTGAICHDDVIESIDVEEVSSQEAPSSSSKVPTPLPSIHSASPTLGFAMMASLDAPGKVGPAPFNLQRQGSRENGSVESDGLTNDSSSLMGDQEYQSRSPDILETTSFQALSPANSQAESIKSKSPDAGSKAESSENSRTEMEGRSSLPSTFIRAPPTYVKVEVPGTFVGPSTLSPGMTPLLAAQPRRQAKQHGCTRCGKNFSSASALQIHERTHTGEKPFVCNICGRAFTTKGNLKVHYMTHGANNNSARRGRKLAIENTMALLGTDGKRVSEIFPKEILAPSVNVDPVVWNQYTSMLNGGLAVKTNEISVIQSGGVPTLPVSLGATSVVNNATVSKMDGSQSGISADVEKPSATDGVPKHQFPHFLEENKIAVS
T2 sequence (Q96SW2 whole entry): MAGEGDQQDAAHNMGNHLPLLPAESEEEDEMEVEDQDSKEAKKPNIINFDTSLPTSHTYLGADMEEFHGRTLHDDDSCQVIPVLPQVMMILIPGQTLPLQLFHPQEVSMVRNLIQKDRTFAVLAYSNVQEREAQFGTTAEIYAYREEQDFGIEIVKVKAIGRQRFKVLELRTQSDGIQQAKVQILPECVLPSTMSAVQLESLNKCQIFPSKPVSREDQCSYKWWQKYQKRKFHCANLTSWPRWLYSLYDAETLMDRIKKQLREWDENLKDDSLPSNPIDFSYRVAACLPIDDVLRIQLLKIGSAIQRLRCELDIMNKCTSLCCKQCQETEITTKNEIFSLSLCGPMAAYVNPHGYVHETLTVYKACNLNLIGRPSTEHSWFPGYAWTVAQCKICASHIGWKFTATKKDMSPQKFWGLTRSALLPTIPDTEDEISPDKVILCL
T2 sequence (Q16531 whole entry partner): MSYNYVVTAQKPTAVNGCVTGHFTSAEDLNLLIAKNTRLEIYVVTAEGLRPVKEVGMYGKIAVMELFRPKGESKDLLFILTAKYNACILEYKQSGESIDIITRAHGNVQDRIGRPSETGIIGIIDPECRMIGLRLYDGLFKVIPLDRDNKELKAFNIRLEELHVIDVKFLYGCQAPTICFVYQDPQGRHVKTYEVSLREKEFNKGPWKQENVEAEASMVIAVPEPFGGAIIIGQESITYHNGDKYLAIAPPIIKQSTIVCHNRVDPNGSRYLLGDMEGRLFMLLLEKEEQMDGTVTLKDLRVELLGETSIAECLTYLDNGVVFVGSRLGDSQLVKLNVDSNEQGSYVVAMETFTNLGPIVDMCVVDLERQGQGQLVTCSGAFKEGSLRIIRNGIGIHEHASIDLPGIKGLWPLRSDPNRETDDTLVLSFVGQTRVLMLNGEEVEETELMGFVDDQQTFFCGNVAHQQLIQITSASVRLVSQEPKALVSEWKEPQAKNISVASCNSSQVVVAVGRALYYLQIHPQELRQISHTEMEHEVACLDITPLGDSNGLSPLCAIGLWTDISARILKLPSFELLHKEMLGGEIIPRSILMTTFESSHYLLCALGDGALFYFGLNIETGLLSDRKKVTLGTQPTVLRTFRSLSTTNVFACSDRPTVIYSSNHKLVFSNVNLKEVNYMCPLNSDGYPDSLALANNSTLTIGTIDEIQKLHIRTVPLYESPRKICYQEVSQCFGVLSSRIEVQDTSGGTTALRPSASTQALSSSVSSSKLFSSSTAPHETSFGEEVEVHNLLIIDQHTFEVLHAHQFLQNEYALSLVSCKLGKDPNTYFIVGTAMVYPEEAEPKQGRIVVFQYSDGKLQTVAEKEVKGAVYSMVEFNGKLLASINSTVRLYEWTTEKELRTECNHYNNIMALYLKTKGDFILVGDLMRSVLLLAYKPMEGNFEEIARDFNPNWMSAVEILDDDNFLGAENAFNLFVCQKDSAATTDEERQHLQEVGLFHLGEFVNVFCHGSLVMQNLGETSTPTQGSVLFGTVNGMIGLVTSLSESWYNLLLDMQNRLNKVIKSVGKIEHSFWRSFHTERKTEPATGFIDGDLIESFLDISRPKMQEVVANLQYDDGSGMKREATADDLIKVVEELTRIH
T1 sequence (Q13422 whole entry): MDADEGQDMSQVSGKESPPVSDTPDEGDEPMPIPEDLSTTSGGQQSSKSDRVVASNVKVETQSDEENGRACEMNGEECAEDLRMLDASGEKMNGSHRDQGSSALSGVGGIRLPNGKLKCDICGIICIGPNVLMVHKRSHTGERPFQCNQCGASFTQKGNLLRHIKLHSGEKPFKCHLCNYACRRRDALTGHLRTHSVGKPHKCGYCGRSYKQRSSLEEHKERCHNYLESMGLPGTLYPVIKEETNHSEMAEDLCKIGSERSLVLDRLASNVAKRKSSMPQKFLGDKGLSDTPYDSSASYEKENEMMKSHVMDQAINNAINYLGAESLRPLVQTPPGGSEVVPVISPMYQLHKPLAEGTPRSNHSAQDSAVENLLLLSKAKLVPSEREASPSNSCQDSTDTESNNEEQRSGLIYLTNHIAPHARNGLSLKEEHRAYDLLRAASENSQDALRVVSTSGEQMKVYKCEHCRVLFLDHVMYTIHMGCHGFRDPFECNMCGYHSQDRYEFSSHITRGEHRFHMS
T1 sequence (Q96SW2 whole entry): as the sequence (Q96SW2 whole entry) above
T1 sequence (Q16531 whole entry partner): as the sequence (Q16531 whole entry partner) above

The term Dmax denotes the greatest extent of degradation seen. As a reminder, the DC50 is the midpoint of the concentration-degradation curve. Regarding `N#Cc1ccc(N2CCN(Cc3ccc(Cc4ccc5c6c(cc(F)cc46)C(=O)N5[C@@H]4CCC(=O)NC4=O)cc3)CC2)c(F)c1` (single isomer, unassigned) [Compound 9-A], the Dmax in assay [1] (setting [4]) was 89.9%; in assay [1] (setting [5]), 93.1%; in assay [2] (setting [4]), 55.2%; in assay [2] (setting [5]), 57%; in assay [3] (setting [8]), around 68%; in assay [3] (after 4 hours of incubation), 88%. Also, the DC50 in assay [1] (setting [6]) is 0.23 nM; in assay [1] (setting [7]), 0.185 nM; in assay [2] (setting [6]), 328 nM; in assay [2] (setting [7]), 292 nM; in assay [3] (setting [8]), around 8 nM; in assay [3] (after 4 hours of incubation) it was 0.6 nM.

With `N#Cc1ccc2c(c1)OC[C@H]1CN(Cc3ccc(Cc4ccc5c6c(cc(F)cc46)C(=O)N5C4CCC(=O)NC4=O)cc3)CCN21` (stereo partly shown) [Compound 1], the maximal degradation (Dmax) was 93.2% in assay [1] (setting [4]) and 57.4% in assay [2] (setting [4]). In addition, the DC50 in assay [1] (setting [6]) came to 0.025 nM; in assay [2] (setting [6]), 117 nM.

In the case of `N#Cc1ccc2c(c1)OC[C@H]1CN(Cc3ccc(Cc4ccc5c6c(cc(F)cc46)C(=O)N5C4CCC(=O)NC4=O)cn3)CCN21` (stereo partly shown) [Compound 2], the Dmax in assay [1] (setting [4]) turned out to be 91.8%; in assay [2] (setting [4]), 53.2%. The values for the DC50 in assay [1] (setting [6]) and in assay [2] (setting [6]) were 0.022 nM and 400 nM, respectively.

For `N#Cc1ccc2c(c1)OC[C@H]1CN(Cc3ccc(Cc4ccc5c6c(cccc46)C(=O)N5C4CCC(=O)NC4=O)cc3)CCN21` (stereo partly shown) [Compound 3], the Dmax in assay [1] (setting [4]) was 93.3%; in assay [2] (setting [4]) it was 68%. Also, the DC50 in assay [1] (setting [6]) was determined as 0.038 nM; in assay [2] (setting [6]), 2.4 nM.

Regarding `N#Cc1cnc2c(c1)OC[C@H]1CN(Cc3ccc(Cc4ccc5c6c(cccc46)C(=O)N5C4CCC(=O)NC4=O)c(F)c3)CCN21` (stereo partly shown) [Compound 4], the Dmax in assay [1] (setting [4]) was 93.5%; in assay [2] (setting [4]), 68.6%. Also, the DC50 in assay [1] (setting [6]) turned out to be 0.026 nM; in assay [2] (setting [6]) it was 1 nM.

In the case of `N#Cc1ccc2c(c1)OC[C@H]1CN(Cc3ccc(Cc4ccc5c6c(cccc46)C(=O)N5C4CCC(=O)NC4=O)cc3)CCN21` (stereo partly shown) [Compound 5], in assay [1] (setting [9]), the “HiBiT IKZF1: Dmax” value was found to be 94.1%. The DC50 in assay [1] (setting [6]) is 0.017 nM; in assay [2] (setting [6]), 2 nM. In addition, the “HiBiT SALL4: Dmax” value in assay [2] (setting [9]) is 76.5%.

Turning to `O=C1CCC(N2C(=O)c3cc(F)cc4c(Cc5ccc(CN6CC(N7CCOCC7)C6)cc5F)ccc2c34)C(=O)N1` (stereo not shown) [Compound 6], the Dmax was 74.6% in assay [1] (setting [4]) and 33.7% in assay [2] (setting [4]). The half-maximal degradation concentration (DC50) in assay [1] (setting [6]) was 0.74 nM; in assay [2] (setting [6]), above 10000 nM.

Regarding `O=C1CCC(N2C(=O)c3cc(F)cc4c(Cc5ccc(CN6CCC7(CCCO7)CC6)cc5F)ccc2c34)C(=O)N1` (stereo not shown) [Compound 7], the Dmax in assay [1] (setting [4]) was 86.3%; in assay [2] (setting [4]) it was 45.4%. Moreover, the DC50 in assay [1] (setting [6]) is 0.13 nM; in assay [2] (setting [6]), above 10000 nM.

On to `O=C1CCC(N2C(=O)c3cc(F)cc4c(Cc5ccc(CN6CCOCC6)cc5F)ccc2c34)C(=O)N1` (stereo not shown) [Compound 8], for which the greatest degradation seen (Dmax) in assay [1] (setting [4]) worked out at 75.2%; in assay [2] (setting [4]), 34.9%. Besides, the DC50 in assay [1] (setting [6]) is 2.37 nM; in assay [2] (setting [6]), above 10000 nM.

With `N#Cc1cnc2c(c1)OC[C@H]1CN(Cc3ccc(Cc4ccc5c6c(cc(F)cc46)C(=O)N5C4CCC(=O)NC4=O)c(F)c3)CCN21` (stereo partly shown) [Compound 10], the Dmax in assay [1] (setting [4]) was 88.3%; in assay [2] (setting [4]), 29.4%. Further, the DC50 in assay [1] (setting [6]) was 0.065 nM; in assay [2] (setting [6]), above 10000 nM.

With `O=C1CCC(N2C(=O)c3cc(F)cc4c(Cc5ccc(CN6CCC(N7CCOCC7)CC6)cc5F)ccc2c34)C(=O)N1` (stereo not shown) [Compound 11], the figures for the maximal degradation (Dmax) in assay [1] (setting [4]) and in assay [2] (setting [4]) were 66.2% and 33.9%, respectively. Besides, the DC50 in assay [1] (setting [6]) was 2.19 nM; in assay [2] (setting [6]), above 10000 nM.

As for `O=C1CCC(N2C(=O)c3cc(F)cc4c(Cc5ccc(CN6CCOCC6)cc5)ccc2c34)C(=O)N1` (stereo not shown) [Compound 12], the Dmax in assay [1] (setting [4]) is 69.3%; in assay [2] (setting [4]), 32.5%. Also, the DC50 in assay [1] (setting [6]) is 5.89 nM; in assay [2] (setting [6]) it was above 10000 nM.

Regarding `CC(C)(C)N1CCN(Cc2ccc(Cc3ccc4c5c(cc(F)cc35)C(=O)N4C3CCC(=O)NC3=O)c(F)c2)CC1` (stereo not shown) [Compound 13], the Dmax worked out at 87.3% in assay [1] (setting [4]) and 49.1% in assay [2] (setting [4]). Further, the DC50 in assay [1] (setting [6]) is 1.22 nM; in assay [2] (setting [6]) it was above 10000 nM.

Consider `N#Cc1ccc(N2CCN(Cc3ccc(Cc4ccc5c6c(ccc(F)c46)C(=O)N5C4CCC(=O)NC4=O)cc3)CC2)c(F)c1` (stereo not shown) [Compound 14], for which the greatest degradation seen (Dmax) in assay [1] (setting [5]) was determined as 89.9%; in assay [2] (setting [5]) it was 79.3%. Further, the figures for the DC50 in assay [1] (setting [7]) and in assay [2] (setting [7]) were 1 nM and 2 nM, respectively.

Consider `N#Cc1ccc(N2CCN(Cc3ccc(Cc4ccc5c6c(c(F)ccc46)C(=O)N5C4CCC(=O)NC4=O)cc3)CC2)c(F)c1` (stereo not shown) [Compound 15], for which the Dmax came to 60.1% in assay [1] (setting [5]) and 28.5% in assay [2] (setting [5]). The 50% degradation concentration (DC50) is 39.1 nM in assay [1] (setting [7]) and above 10000 nM in assay [2] (setting [7]).

For the compound `N#Cc1ccc(N2CCN(Cc3ccc(Cc4ccc5c6c(cc(Br)cc46)C(=O)N5C4CCC(=O)NC4=O)cc3)CC2)c(F)c1` (stereo not shown) [Compound 16], the Dmax in assay [1] (setting [5]) amounted to 92.2%; in assay [2] (setting [5]), 65.8%. Also, the 50% degradation concentration (DC50) in assay [1] (setting [7]) worked out at 1.23 nM; in assay [2] (setting [7]), 772 nM.

`N#Cc1ccc(N2CCN(Cc3ccc(Cc4ccc5c6c(cc(Cl)cc46)C(=O)N5C4CCC(=O)NC4=O)cc3)CC2)c(F)c1` (stereo not shown) [Compound 17]: the maximal degradation (Dmax) was determined as 41.1% in assay [1] (setting [5]) and 11.4% in assay [2] (setting [5]). Besides, the results for the DC50 in assay [1] (setting [7]) and in assay [2] (setting [7]) were above 10 nM and above 10000 nM, respectively.

For `N#Cc1ccc(N2CCN(Cc3ccc(Cc4ccc5c6c(cccc46)C(=O)N5C4CCC(=O)NC4=O)c(F)c3)CC2)c(F)c1` (stereo not shown) [Compound 18], the Dmax was 96.1% in assay [1] (setting [5]) and 80.5% in assay [2] (setting [5]). The DC50 was 0.014 nM in assay [1] (setting [7]) and below 0.3 nM in assay [2] (setting [7]).

Consider `O=C1CCC(N2C(=O)c3cccc4c(Cc5ccc(CN6CCOCC6)cc5)ccc2c34)C(=O)N1` (stereo not shown) [Compound 19], for which the Dmax in assay [1] (setting [5]) worked out at 93.5%; in assay [2] (setting [5]), 64.6%. Besides, the DC50 in assay [1] (setting [7]) was found to be 0.157 nM; in assay [2] (setting [7]), 5.2 nM.

Turning to `N#Cc1ccc(N2CCN(Cc3ccc(Cc4ccc5c6c(cccc46)C(=O)N5C4CCC(=O)NC4=O)cc3)CC2)c(F)c1` (stereo not shown) [Compound 20], the Dmax in assay [1] (setting [5]) worked out at 96.9%; in assay [2] (setting [5]), 79.3%. Also, the results for the DC50 in assay [1] (setting [7]) and in assay [2] (setting [7]) were 0.014 nM and below 0.3 nM, respectively.
